Patent US12589087B2, “Enantiomer selective action on neurotransmission” (The Board of Trustees of the Leland Stanford Junior …, priority 2021, dated 2026)

Key:
human glutaminase GLS1 = target: T1, human glutaminase GLS1 (Homo sapiens, UniProt O94925); test: Catalysis of 2MeGln hydrolysis by GLS1 glutaminase; type: biochemical; details: 10 mM substrate, 5 ng/mL enzyme, phosphate pH 7.4
T1 construct: purchased Sigma SRP0516
T1 sequence (O94925 55-669): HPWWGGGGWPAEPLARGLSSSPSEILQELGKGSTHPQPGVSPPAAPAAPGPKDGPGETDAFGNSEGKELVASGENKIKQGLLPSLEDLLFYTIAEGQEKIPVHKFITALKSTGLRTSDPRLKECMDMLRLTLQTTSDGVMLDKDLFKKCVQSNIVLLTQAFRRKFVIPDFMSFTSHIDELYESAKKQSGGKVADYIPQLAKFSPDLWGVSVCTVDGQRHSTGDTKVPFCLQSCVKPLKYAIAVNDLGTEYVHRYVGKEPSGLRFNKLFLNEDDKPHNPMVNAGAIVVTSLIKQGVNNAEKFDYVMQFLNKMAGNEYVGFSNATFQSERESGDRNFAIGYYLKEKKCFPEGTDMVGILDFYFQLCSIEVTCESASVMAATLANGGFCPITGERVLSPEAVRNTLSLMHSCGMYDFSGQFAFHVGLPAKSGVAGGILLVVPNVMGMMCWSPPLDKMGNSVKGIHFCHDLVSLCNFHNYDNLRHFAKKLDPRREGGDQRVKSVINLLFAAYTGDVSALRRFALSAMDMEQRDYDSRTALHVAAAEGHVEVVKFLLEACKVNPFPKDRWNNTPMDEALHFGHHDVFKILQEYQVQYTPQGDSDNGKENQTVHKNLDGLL
Description: The procedure was adapted from an existing protocol. To a reaction mixture in a 1.5 mL microcentrifuge tube containing 10 mM rac-2MeGln or L-Gln-^13C2 in 100 mM phosphate pH 7.4 buffer made in 20% atom ^18O water, recombinant GLS1 (final concentration: 5 ng/mL) was added. The tubes were incubated in a preheated thermomixer at 37° C. and periodically shaken at 600 rpm (30 s on, 30 s off). 5 μL aliquots were collected in triplicate every 5 min and immediately diluted with 195 μL of cold 60% ACN containing 10 μM Glu-d5 and Gln-d5 as internal standards in a 96 well plate. After collecting all samples, the plate was shaken at 1000 rpm for 5 min at room temperature, and then stored at −80° C. Before analysis the plate was thawed and 10 μL aliquots of the extracted reaction mixtures were diluted with 190 μL of 90% acetonitrile.
The quantification of the newly formed 2MeGlu in the presence of the preexisting trace amounts was performed in the following way. Peak area ratio of Glu-^13C2 to Glu-^13C2^18O was calculated in all samples containing Glu-^13C2. The mean ratio value was then applied to calculate the hypothetical peak area of the newly formed 2MeGlu based on the directly measured 2MeGlu-^18O peak area. The ratio of the newly formed 2MeGlu peak area and the total 2MeGlu peak area was applied to calculate the concentration of the newly formed 2MeGlu from the total 2MeGlu concentration determined directly using the calibration curve.

[1] = test system: murine primary cerebral cortical neuron cultures; test: Neuronal transport and metabolism of 2MeGln; type: cell-based, mouse; details: 1 mM substrate, 2 h, 37° C., neurons
Description: The procedure was adapted from an existing protocol. Wild-type (WT) C57BL/6J mating pairs were housed according to Stanford IACUC protocol. On day P0, pups were euthanized and brains dissected in cold HBSS (without Ca^2+ or Mg^2+). The forebrain was microdissected to isolate the cortex and hippocampus. These brain regions were minced in cold HBSS before trypsinization at 37° C. for 9 minutes, followed by trituration, through 2 glass polished Pasteur pipettes. The resulting cell suspension was passed through a 100 μm filter to isolate single cells which were sedimented at 250 g for 5 minutes. The cell pellet was then resuspended in complete Neural Basal Media (Neural Basal Media+Glutamax+B-27 Plus Supplement+Pen/Strep)+10% FBS, counted using a hemocytometer and plated at 1×10^6 cells per mL into a 24 well plate (1 mL per well) coated with poly-D-lysine and laminin. Cultures were grown at 37° C./5% CO2 in a tissue culture incubator. Media was exchanged 50% on day 1 in vitro (1 DIV) with fresh complete Neural Basal Media without FBS and thereafter every other day with the same media. On 3 DIV the media was spiked with 2 μM AraC to limit glial growth. On 10 DIV the media was completely replaced with 500 μL Neural Basal Media containing B-27 Plus Supplement+Pen/Strep without added Glutamax but instead containing 1 mM substrate at 37° C. for 2 h. […]

- apparent reaction rate of GLS1 hydrolysis (human glutaminase GLS1): 65 µM/min
- intracellular [1,2-13C]Gln, lower than 2MeGln in corresponding samples [1]: 2 fold
Structure (SMILES): NC(=O)CC[C@H](N)C(=O)O [Gln, L-glutamine, reference compound]
